Tested on: distant metastatic pancreatic cancer
Test: Multicenter, open-label study of Nivolumab in combination with mFFX therapy; anti-tumor effect by CT/MRI according to RECIST guideline version 1.1
Format: in vivo, patients
Details: 16 weeks after start of administration, central judgment
Description: The purpose of this clinical trial is to evaluate the efficacy and safety in combination of Nivolumab and mFFX therapy for patients with distant metastatic pancreatic cancer, having no history of chemotherapy. The clinical trial can evaluate the combined effect of Nivolumab and mFFX therapy.
Patients with distant metastatic pancreatic cancer, having no history of chemotherapy
Nivolumab was intravenously administered at 480 mg every 4 weeks over 30 minutes, and Nivolumab was continuously administered until falling into the prescribed criterion for discontinuing the administration of Nivolumab. No change in dose of Nivolumab is allowed. When Nivolumab and mFFX therapy were administered on the same day, Nivolumab was administered initially, and at least 30 minutes after the end of Nivolumab administration, mFFX therapy started.
Oxaliplatin was intravenously administered at 85 mg/m^2 over 2 hours, and then levofolinate was intravenously administered at 200 mg/m^2 over 2 hours. 30 minutes after the start of levofolinate administration, irinotecan was intravenously administered at 150 mg/m^2 over 1.5 hours. Further, after completion of levofolinate administration, fluorouracil was intravenously administered at 2400 mg/m^2 over 46 hours. This was set as one cycle and repeated every 2 weeks.
The anti-tumor effect was evaluated by image diagnosis using CT/magnetic resonance imaging (MRI) on chest, abdomen and pelvis, and measuring the tumor diameter in target lesion according to RECIST guideline version 1.1. The diagnosis imaging (measurement of tumor diameter and judgement of anti-tumor effect) was conducted at the following time points. […]
6 months after the first subject was enrolled, for 7 subjects in which the image diagnosis twice every 8 weeks as defined in the clinical trial protocol was completed (16 weeks after the start of administration of the drug), the effectiveness was evaluated (central judgment).

[1] = Nivolumab 480 mg i.v. every 4 weeks in combination with mFFX therapy, 7 subjects evaluated

Nivolumab
response rate (Nivolumab 480 mg i.v. every 4 weeks in combination with mFFX therapy every 2 weeks, 7 subjects with distant metastatic pancreatic cancer, no history of chemotherapy): 42.9%
CR (number of cases) [1]: 0 cases
PR (number of cases) [1]: 3 cases

Source: patent US12447150B2, “Treatment of cancer by combination of immune checkpoint inhibitor and folfirinox therapy” (ONO PHARMACEUTICAL CO., LTD., priority 2018, dated 2025)
